Source: patent US10058524B2, “Methods for improving joint function” (Tersus Life Sciences, LLC, priority 2015, dated 2018)

Legend:
Assay type in all cases: in vivo
Human Subjects [1] = assay: Stepmill Protocol: time of onset and offset of knee discomfort
Experimental: The study duration was thirty-seven (37) days with a total of 4 visits per subject. The initial screening visit (Visit 1) occurred 7 days prior to the initiation of the study (Day −7). Subjects arrived in the clinic having fasted for 10 hours in preparation for Visit 1. Subjects underwent the informed consent process and were screened for the presence of all the inclusion criteria and the absence of all the exclusion criteria. The screening process also included taking a detailed medical history, recording prior and concomitant medications, performing a physical examination, and documenting vital signs, and anthropometric measures. To determine eligibility, subjects continuously used the Stepmill at a set rate for 10 minutes until they complained of knee discomfort (in at least one knee) that scored at least 5 on an 11 point numeric pain rating scale. The time of onset of joint pain was recorded. Subjects were also instructed to inform the clinician when their discomfort began to subside and when their discomfort completely resolved.
Baseline assessments included evaluating the pain or discomfort experienced by subjects during exercise testing. Subjects were instructed to exercise on a StepMill® model 7000PT (StairMaster® Health & Fitness Products, Inc., Kirkland, Wash.) at a set rate (Level 4) for 10 minutes. The following knee discomfort measures were recorded from the beginning of the Stepmill test: (1) time of onset of initial joint pain; (2) time of onset of maximum joint pain; (3) time at which initial improvement in knee joint pain was achieved; and (4) time of complete recovery from knee joint pain. Subjects that reported a discomfort level of 5 on an 11 point (0-10) Likert scale in at least one knee within the 10-minute period were selected. Once the requisite pain level was achieved, the subject was asked to continue stepping for an additional two minutes in order to record the maximum pain level reached before disembarking from the stepmill. Subjects who experienced a pain score of 5 (or greater) within one minute of starting the stress test were excluded.
(§1) Subjects who met all of the study inclusion criteria and none of the exclusion criteria were randomly assigned to either the C16:1n7-palmitoleate-treatment or placebo groups. The C16:1n7-palmitoleate composition included palmitoleic acid, gelatin, glycerin and purified water whereas the placebo included medium chain triglycerides. […] The subjects and the clinical staff were unaware of what group a particular subject was allocated to. Baseline assessments for joint pain and knee range of motion in a subject were obtained via the 6-Minute Timed Walk, Stepmill Protocol, and goniometry. At the end of the visit, subjects were provided with a 7-day supply of the C16:1n7-palmitoleate composition or placebo and daily dosing diaries. Subjects were instructed to ingest a single capsule of the C16:1n7-palmitoleate composition or the placebo per day.
(§2) Subjects returned to the clinic at Visit 3 (Day 7) for repeat assessments of joint pain, range of motion, activity levels and health-related quality of life scores. After the performance-based physical functioning measures were evaluated, the subjects were provided with a 23-day supply of the C16:1n7-palmitoleate composition or placebo. Subjects returned to the clinic at Visit 4 (Day 30), which marked the end of the study, for reevaluation of the performance-based physical functioning measures.
The time of onset of discomfort or pain level refers to the time at which the minimum or maximum discomfort or pain level is reached. The time of onset of minimum discomfort or pain level refers to the time at which minimum discomfort or pain level is reached. The time of onset of maximum discomfort or pain level refers to the time at which maximum discomfort or pain level is reached.
As used herein, the time of offset of discomfort is the time at which a level of relief is reached after performing the Stepmill Protocol described herein. […]

Human Subjects [2] = assay: 6-Minute Timed Walk; settings: between treated and placebo groups, any time point
Experimental: Other performance-based physical functioning measures including the 6-Minute Timed Walk and Knee Range of Motion (ROM) were also performed by the subjects. In the 6-Minute Timed Walk, subjects walked up and down a hallway for 6 minutes and were instructed to walk as rapidly as possible within their comfort zone, and as rapidly as possible without causing themselves any pain.
as §1, with “At the end of the visit, subjects were provided with a 7-day supply of the C16:1n7-palmitoleate composition or placebo and daily dosing diaries. Subjects were instructed to ingest a single capsule of the C16:1n7-palmitoleate composition or the placebo per day.” left out
as §2, with “Subjects returned to the clinic at Visit 4 (Day 30), which marked the end of the study, for reevaluation of the performance-based physical functioning measures.” left out

Human Subjects [3] = assay: Knee range of motion by goniometry (extension and flexion)
Excerpt: (§3) Goniometry was used to measure knee range of motion. To measure Knee Extension, subjects were instructed to extend the left or right knee to full extension without changing the position of their pelvis and lumbar spine. An inclinometer was placed along the subject's shin so as to document the range of motion in degrees. To measure Knee Flexion, subjects were asked to lie on their stomach with their shins off the end of the table, and were instructed to fully extend their knees. The subject was then asked to actively flex his/her knee to a full flexion position. The following scales and questionnaires: Stanford Exercise Behavior Scale—Stretching and Aerobics, Knee-related QOL subscale of KOOS Knee Survey, SF-12, and Knee Discomfort Improvement Scale were completed by the subjects at the initial screening.
as §1, §2
Goniometric measurements, which record the active and passive range of motion in joints like the knee, are often used in evaluating joint function.

Human Subjects [4] = assay: Stanford Exercise Behavior Scale - Stretching and Aerobics
Excerpt: as §3
Experimental endpoints included Change in Time of Onset and Offset of Discomfort, Changes in 6-Minute Timed Walk, Change in Knee Range of Motion as measured by goniometry including Left and Right Knee Extension and Left and Right Knee Flexion. Stanford Exercise Scale—Stretching and Aerobics was used to measure the effect of the C16:1n7-palmitoleate composition on physical activity levels.

Human Subjects [5] = assay: SF-12 survey (physical and mental component scores)
Excerpt: as §3
Quality of life (QOL) was assessed using Change in SF-12 and Knee-related QOL subscale of KOOS Knee Survey, and Knee Discomfort Improvement Scale. The SF-12 is a multipurpose short form survey with 12 questions, all selected from the SF-36 Health Survey. The questions were combined, scored, and weighted to create two scales that provide glimpses into the subject's mental and physical functioning and overall health-related-quality of life. Physical and Mental Health Component Summary Scores were computed using the scores of the twelve questions and a range from 0 to 100, where zero corresponds to the lowest level of health measured by the scales and 100 corresponds to the highest level of health.

Human Subjects [6] = assay: Knee-related QOL subscale of KOOS Knee Survey
Excerpt: as §3
Knee injury and Osteoarthritis Outcome Score (KOOS) is an instrument to assess the patients' opinion about their knee and knee-associated problems. For this study, only the Knee Related QOL subscale was used.

Human Subjects [7] = assay: Knee Discomfort Improvement Scale; settings: group n=20
Excerpt: as §3
Knee Discomfort Improvement Scale refers to the response to the question “Is your overall knee discomfort improving?”, rated using a 3-point scale where zero is “Not at All”, 1 is “Moderately” and 2 is “Definitely”.

[8] = between treated and placebo groups, any time point
[9] = within-group, baseline to any time point

In the case of `CCCCCC/C=C\CCCCCCCC(=O)O` [C16:1n7-palmitoleate, palmitoleic acid], the “average time to report maximum discomfort or pain level” value (Human Subjects [1]; after 30 days, placebo 5.43±2.53 minutes) is reported as 6.89 ± 2.59 min, the “time of onset of minimum discomfort or pain level” value (Human Subjects [1]; between treated and placebo groups) is reported as “no statistically significant difference” and the “time of offset of maximum discomfort” value (Human Subjects [1]; [8]) is reported as “no statistically significant difference”. For the same compound, the “time of offset of minimum discomfort” value (Human Subjects [1]; [8]) was “no statistically significant difference”, the “changes in the time of onset of maximum discomfort from Day 0 to Day 30” value (Human Subjects [1]; between treated and placebo groups, p=0.007) was “statistically significant difference” and the “time to reach maximum discomfort or pain level” value (Human Subjects [1]; between treated and placebo groups, treated taking more time) was “significantly different”. For the same compound, the “time of onset of minimum discomfort or pain level” value (Human Subjects [1]; within-group, 7 days vs Day 0, p=0.013, one capsule per day) was “statistically significant increase”, the “time of onset of minimum discomfort or pain level” value (Human Subjects [1]; within-group, 30 days vs Day 0, p=0.005, one capsule per day) was “statistically significant increase” and the “time of onset of maximum discomfort” value (Human Subjects [1]; within-group, 30 days vs Day 0, p=0.012) was “significantly increased”. The “time of offset of maximum discomfort” value (Human Subjects [1]; within-group, 30 days vs Day 0, p=0.014) was “decrease”, the “time of minimum offset of discomfort” value (Human Subjects [1]; [9]) was “no statistically significant changes” and the “distance covered during the 6-minute timed walk” value (Human Subjects [2]) was “no statistically significant difference”. The “change in left knee flexion” value (Human Subjects [3]; after 7 days of supplementation) was “apparent”, the right knee extension (Human Subjects [3]; [8]) was “no statistically significant difference” and the right knee flexion (Human Subjects [3]; [8]) was “no statistically significant difference”. For the same compound, the left knee flexion (Human Subjects [3]; within-group, 30 days vs Day 0, p=0.015) was “significant increase”, the right knee flexion (Human Subjects [3]; within-group, 30 days vs Day 0, p=0.019) was “significant increase” and the left knee extension (Human Subjects [3]; within-group, 30 days vs Day 0, p=0.028) was “significant increase”. The right knee extension (Human Subjects [3]; [9]) was “no statistically significant changes”, the “average minutes per week for aerobic exercise” value (Human Subjects [4]; [8]) was “no statistically significant differences” and the “average minutes per week for stretching exercise” value (Human Subjects [4]; [8]) was “no statistically significant differences”. For the same compound, the time spent stretching (Human Subjects [4]; within-group, after 30 days of supplementation, p=0.066) was “non-statistically significant yet clinically significant increase”, the “average minutes per week for aerobic exercise” value (Human Subjects [4]; [9]) was “no statistically significant changes” and the “mental component score of the SF-12 survey” value (Human Subjects [5]; [8]) was “no statistically significant differences”. The “physical component score of the SF-12 survey” value (Human Subjects [5]; [8]) was “no statistically significant differences”, the “increase in the physical component score of the SF-12 survey” value (Human Subjects [5]; within-group, 30 days vs Day 0, p=0.031) was 8.93% and the “mental component score of the SF-12 survey” value (Human Subjects [5]; [9]) was “no statistically significant changes”. For the same compound, the “knee-related quality of life scores” value (Human Subjects [6]; [8]) was “no statistically significant differences”, the “knee-related quality of life scores” value (Human Subjects [6]; within-group, Day 7 vs Day 0, p=0.002) was “increase” and the “knee-related quality of life scores” value (Human Subjects [6]; within-group, Day 30 vs Day 0, p<0.001) was “increase”. The “number of subjects that reported moderate improvements in knee discomfort” value (Human Subjects [7]; Day 0 (baseline)) was 4, the “number of subjects that reported definite improvements in knee discomfort” value (Human Subjects [7]; Day 7) was 2 and the “number of subjects that reported moderate improvements in knee discomfort” value (Human Subjects [7]; Day 7) was 10. For the same compound, the “number of subjects that reported moderate improvements in knee discomfort” value (Human Subjects [7]; Day 30) was 8 subjects and the “number of subjects that reported definite improvements in knee discomfort” value (Human Subjects [7]; Day 30, comparable to placebo) was 8.
